Test results reported in ChEMBL document CHEMBL1158837, “Cyclohexadepsipeptides from the insect pathogenic fungus Hirsutella nivea BCC 2594” (J Nat Prod, 2005).
Values after ≈ are worked out from the molar mass of the structure shown. Active and inactive are the calls of the source. The calls are words filed in the database; no cut-off is given here. Square brackets hold non-standard residues; d marks the D form. Peptide text beside a SMILES is read from it. Hica(2S) = CC(C)C[C@H](O)C(=O)O; NMeL = CN[C@@H](CC(C)C)C(=O)O; Hiv = CC(C)[C@H](O)C(=O)O

What was measured:
[1] = system: Mycobacterium tuberculosis; assay: Antitubercular activity against Mycobacterium tuberculosis H37Ra after 4 days by microplate alamar blue assay; type: functional; conditions: 96 h
Vero = assay: Cytotoxicity against african green monkey Vero cells at 50 ug/ml by SRB assay; type: cell-based; conditions: chlorocebus sabaeus
Plasmodium falciparum [2] = assay: Antimalarial activity against multidrug-resistant Plasmodium falciparum K1 at 20 ug/ml after 42 hrs as reduced [3H]hypoxanthine uptake; type: functional, organism-based
Plasmodium falciparum [3] = assay: Antimalarial activity against multidrug-resistant Plasmodium falciparum K1 after 42 hrs by [3H]hypoxanthine uptake; type: functional, organism-based

SMILES	MIC [1] [µg/mL]	Activity (Vero)	Activity (Plasmodium falciparum [2])	IC50 (Plasmodium falciparum [3]) [µg/mL]
CC(C)C[C@@H]1OC(=O)[C@H](C(C)C)OC(=O)[C@H](CO)NC(=O)[C@H]([C@@H](C)O)NC(=O)[C@H](CC(C)C)N(C)C(=O)[C@H](Cc2ccccc2)NC1=O [HIRSUTATIN A] (HELM PEPTIDE1{F.[meL].T.S.[CC(C)[C@H](O[*:1])C(=O)[*:2]].[CC(C)C[C@H](O[*:1])C(=O)[*:2]]}$PEPTIDE1,PEPTIDE1,1:R1-6:R2$$$V2.0)	50 (≈ 73.9 µM)	Non-toxic	inactive	–
COc1ccc(C[C@@H]2NC(=O)[C@H](CC(C)C)OC(=O)[C@H](C(C)C)OC(=O)[C@H](CO)NC(=O)[C@H]([C@@H](C)O)NC(=O)[C@H](CC(C)C)N(C)C2=O)cc1 [HIRSUTATIN B] (cyclo([Hica(2S)]Y(Me)[NMeL]TS[Hiv]))	50 (≈ 70.7 µM)	Non-toxic	–	5.8 (≈ 8.21 µM)
